The values below come from patent US20250302809A1, “GLP1 PHARMACEUTICAL COMPOSITIONS” (Eli Lilly and Company, priority 2022, published 2025).

A word on the pKa: it is the negative logarithm of the acid dissociation constant. A lower pKa goes with a stronger acid or weaker base.

One data set can be described thus: pKa of GLP1RA. The format is physicochemical. As to conditions: weak acid.
Data set [1] in a line: aqueous solubility across the physiologic pH range and in simulated physiological fluids. The format is physicochemical. To be noted: across the physiologic pH range as well as in simulated physiological fluids.

With `Cc1cc(-n2nc3c(c2-n2ccn(-c4ccc5c(cnn5C)c4F)c2=O)[C@H](C)N(C(=O)c2cc4cc([C@H]5CCOC(C)(C)C5)ccc4n2[C@@]2(c4noc(=O)[nH]4)C[C@@H]2C)CC3)cc(C)c1F` [GLP1RA, 3-[(1S,2S)-1-[5-[(4S)-2,2-dimethyloxan-4-yl]-2-[(4S)-2-(4-fluoro-3,5-dimethylphenyl)-3-[3-(4-fluoro-1-methylindazol-5-yl)-2-oxoimidazol-1-yl]-4-methyl-6,7-dihydro-4H-pyrazolo[4,3-c]pyridine-5-carbonyl]indol-1-yl]-2-methylcyclopropyl]-4H-1,2,4-oxadiazol-5-one], the pKa in “pKa of GLP1RA” was 5.1. The aqueous solubility result in data set [1] is listed as “very low”.
